Reference: the NIST ThermoML archive (doi:10.1016/j.jct.2006.11.003)
± gives the expanded uncertainty stated by the source.

Test: xn = mol fraction of the nth substance listed
Conditions: 101 kPa, Liquid

In the case of `Cc1ccc(C)cc1` [1,4-dimethylbenzene] + CN1CCCC1=O, the mass density (293.15 K, x1 = 0.0511) is reported as 1023.02 ± 0.44 kg/m3, the mass density (293.15 K, x1 = 0.1204) is reported as 1010.11 ± 0.4 kg/m3 and the mass density (293.15 K, x1 = 0.1985) is reported as 995.8 ± 0.39 kg/m3. The mass density (293.15 K, x1 = 0.2451) was 987.37 ± 0.43 kg/m3, the mass density (293.15 K, x1 = 0.2987) was 977.77 ± 0.48 kg/m3 and the mass density (293.15 K, x1 = 0.3458) was 969.44 ± 0.52 kg/m3. The mass density (293.15 K, x1 = 0.4012) was 959.72 ± 0.57 kg/m3, the mass density (293.15 K, x1 = 0.4781) was 946.42 ± 0.63 kg/m3 and the mass density (293.15 K, x1 = 0.5314) was 937.3 ± 0.68 kg/m3. It also gave a mass density (293.15 K, x1 = 0.5984) of 925.99 ± 0.74 kg/m3, a mass density (293.15 K, x1 = 0.6558) of 916.4 ± 0.78 kg/m3 and a mass density (293.15 K, x1 = 0.7154) of 906.57 ± 0.83 kg/m3. It also gave a mass density (293.15 K, x1 = 0.7841) of 895.34 ± 0.89 kg/m3, a mass density (293.15 K, x1 = 0.8512) of 884.52 ± 0.95 kg/m3 and a mass density (293.15 K, x1 = 0.9254) of 872.69 ± 1 kg/m3. It also gave a mass density (293.15 K, x1 = 1) of 860.95 ± 1.1 kg/m3, a mass density (303.15 K, x1 = 0.0645) of 1011.3 ± 0.4 kg/m3 and a mass density (303.15 K, x1 = 0.1151) of 1001.91 ± 0.37 kg/m3. For the same compound, the mass density (303.15 K, x1 = 0.1814) was 989.76 ± 0.41 kg/m3, the mass density (303.15 K, x1 = 0.2654) was 974.62 ± 0.48 kg/m3 and the mass density (303.15 K, x1 = 0.3214) was 964.66 ± 0.53 kg/m3. For the same compound, the mass density (303.15 K, x1 = 0.3854) was 953.43 ± 0.59 kg/m3, the mass density (303.15 K, x1 = 0.4515) was 941.97 ± 0.65 kg/m3 and the mass density (303.15 K, x1 = 0.5024) was 933.26 ± 0.69 kg/m3. It also gave a mass density (303.15 K, x1 = 0.5685) of 922.06 ± 0.74 kg/m3, a mass density (303.15 K, x1 = 0.6214) of 913.21 ± 0.79 kg/m3 and a mass density (303.15 K, x1 = 0.6754) of 904.26 ± 0.83 kg/m3. It also gave a mass density (303.15 K, x1 = 0.7451) of 892.85 ± 0.89 kg/m3, a mass density (303.15 K, x1 = 0.8114) of 882.12 ± 0.95 kg/m3 and a mass density (303.15 K, x1 = 0.8841) of 870.51 ± 1 kg/m3. For the same compound, the mass density (303.15 K, x1 = 0.9514) was 859.89 ± 1.1 kg/m3, the mass density (303.15 K, x1 = 1) was 852.3 ± 1.1 kg/m3 and the mass density (313.15 K, x1 = 0.0521) was 1004.87 ± 0.37 kg/m3. The mass density (313.15 K, x1 = 0.1142) was 993.77 ± 0.38 kg/m3, the mass density (313.15 K, x1 = 0.1721) was 983.53 ± 0.43 kg/m3 and the mass density (313.15 K, x1 = 0.2302) was 973.36 ± 0.48 kg/m3. It also gave a mass density (313.15 K, x1 = 0.3065) of 960.16 ± 0.55 kg/m3, a mass density (313.15 K, x1 = 0.3615) of 950.77 ± 0.59 kg/m3 and a mass density (313.15 K, x1 = 0.4115) of 942.31 ± 0.64 kg/m3. It also gave a mass density (313.15 K, x1 = 0.4841) of 930.18 ± 0.7 kg/m3, a mass density (313.15 K, x1 = 0.5547) of 918.53 ± 0.76 kg/m3 and a mass density (313.15 K, x1 = 0.6208) of 907.77 ± 0.81 kg/m3. The mass density (313.15 K, x1 = 0.7055) was 894.15 ± 0.88 kg/m3, the mass density (313.15 K, x1 = 0.7805) was 882.26 ± 0.94 kg/m3 and the mass density (313.15 K, x1 = 0.8372) was 873.36 ± 0.99 kg/m3. For the same compound, the mass density (313.15 K, x1 = 0.8947) was 864.42 ± 1 kg/m3, the mass density (313.15 K, x1 = 0.9539) was 855.29 ± 1.1 kg/m3 and the mass density (323.15 K, x1 = 0.0575) was 994.81 ± 0.37 kg/m3. It also gave a mass density (323.15 K, x1 = 0.1247) of 982.32 ± 0.43 kg/m3, a mass density (323.15 K, x1 = 0.2011) of 968.35 ± 0.5 kg/m3 and a mass density (323.15 K, x1 = 0.2784) of 954.42 ± 0.56 kg/m3. It also gave a mass density (323.15 K, x1 = 0.338) of 943.85 ± 0.62 kg/m3, a mass density (323.15 K, x1 = 0.4015) of 932.73 ± 0.67 kg/m3 and a mass density (323.15 K, x1 = 0.4697) of 920.97 ± 0.73 kg/m3. The mass density (323.15 K, x1 = 0.5389) was 909.19 ± 0.79 kg/m3, the mass density (323.15 K, x1 = 0.6003) was 898.9 ± 0.84 kg/m3 and the mass density (323.15 K, x1 = 0.6674) was 887.8 ± 0.89 kg/m3. For the same compound, the mass density (323.15 K, x1 = 0.7245) was 878.46 ± 0.94 kg/m3, the mass density (323.15 K, x1 = 0.7806) was 869.38 ± 0.99 kg/m3 and the mass density (323.15 K, x1 = 0.8341) was 860.82 ± 1 kg/m3. The mass density (323.15 K, x1 = 0.8947) was 851.21 ± 1.1 kg/m3, the mass density (323.15 K, x1 = 0.9481) was 842.83 ± 1.1 kg/m3 and the mass density (323.15 K, x1 = 1) was 834.76 ± 1.2 kg/m3. For the same compound, the mass density (333.15 K, x1 = 0.0462) was 987.58 ± 0.4 kg/m3, the mass density (333.15 K, x1 = 0.1025) was 977.11 ± 0.45 kg/m3 and the mass density (333.15 K, x1 = 0.1724) was 964.26 ± 0.51 kg/m3. For the same compound, the mass density (333.15 K, x1 = 0.2354) was 952.85 ± 0.56 kg/m3, the mass density (333.15 K, x1 = 0.2951) was 942.18 ± 0.62 kg/m3 and the mass density (333.15 K, x1 = 0.3658) was 929.72 ± 0.68 kg/m3. The mass density (333.15 K, x1 = 0.4315) was 918.31 ± 0.73 kg/m3, the mass density (333.15 K, x1 = 0.5007) was 906.49 ± 0.79 kg/m3 and the mass density (333.15 K, x1 = 0.5714) was 894.57 ± 0.85 kg/m3. It also gave a mass density (333.15 K, x1 = 0.6378) of 883.55 ± 0.9 kg/m3, a mass density (333.15 K, x1 = 0.7047) of 872.6 ± 0.96 kg/m3 and a mass density (333.15 K, x1 = 0.7533) of 864.73 ± 1 kg/m3. The mass density (333.15 K, x1 = 0.8258) was 853.13 ± 1.1 kg/m3, the mass density (333.15 K, x1 = 0.8846) was 843.83 ± 1.1 kg/m3 and the mass density (333.15 K, x1 = 0.9479) was 833.93 ± 1.2 kg/m3. For the same compound, the mass density (333.15 K, x1 = 1) was 825.86 ± 1.2 kg/m3, the mass density (343.15 K, x1 = 0.0675) was 974.69 ± 0.45 kg/m3 and the mass density (343.15 K, x1 = 0.1353) was 962.13 ± 0.51 kg/m3. It also gave a mass density (343.15 K, x1 = 0.2024) of 949.85 ± 0.57 kg/m3, a mass density (343.15 K, x1 = 0.2715) of 937.41 ± 0.63 kg/m3 and a mass density (343.15 K, x1 = 0.3376) of 925.68 ± 0.69 kg/m3. For the same compound, the mass density (343.15 K, x1 = 0.4061) was 913.71 ± 0.75 kg/m3, the mass density (343.15 K, x1 = 0.4719) was 902.38 ± 0.8 kg/m3 and the mass density (343.15 K, x1 = 0.5422) was 890.46 ± 0.86 kg/m3. It also gave a mass density (343.15 K, x1 = 0.6103) of 879.09 ± 0.92 kg/m3, a mass density (343.15 K, x1 = 0.6749) of 868.44 ± 0.97 kg/m3 and a mass density (343.15 K, x1 = 0.7405) of 857.78 ± 1 kg/m3. The mass density (343.15 K, x1 = 0.8049) was 847.44 ± 1.1 kg/m3, the mass density (343.15 K, x1 = 0.8674) was 837.54 ± 1.1 kg/m3 and the mass density (343.15 K, x1 = 0.9308) was 827.6 ± 1.2 kg/m3. It also gave a mass density (343.15 K, x1 = 0.9788) of 820.15 ± 1.2 kg/m3, a mass density (343.15 K, x1 = 1) of 816.87 ± 1.2 kg/m3 and a mass density (353.15 K, x1 = 0.0567) of 967.91 ± 0.48 kg/m3. It also gave a mass density (353.15 K, x1 = 0.1134) of 957.31 ± 0.53 kg/m3, a mass density (353.15 K, x1 = 0.1826) of 944.57 ± 0.59 kg/m3 and a mass density (353.15 K, x1 = 0.2527) of 931.85 ± 0.65 kg/m3. For the same compound, the mass density (353.15 K, x1 = 0.3072) was 922.09 ± 0.7 kg/m3, the mass density (353.15 K, x1 = 0.3857) was 908.27 ± 0.76 kg/m3 and the mass density (353.15 K, x1 = 0.4584) was 895.67 ± 0.83 kg/m3. The mass density (353.15 K, x1 = 0.5036) was 887.95 ± 0.86 kg/m3, the mass density (353.15 K, x1 = 0.5757) was 875.79 ± 0.92 kg/m3 and the mass density (353.15 K, x1 = 0.6382) was 865.4 ± 0.97 kg/m3. The mass density (353.15 K, x1 = 0.7016) was 855.01 ± 1 kg/m3, the mass density (353.15 K, x1 = 0.7613) was 845.35 ± 1.1 kg/m3 and the mass density (353.15 K, x1 = 0.8139) was 836.93 ± 1.1 kg/m3. For the same compound, the mass density (353.15 K, x1 = 0.8846) was 825.75 ± 1.2 kg/m3, the mass density (353.15 K, x1 = 0.9378) was 817.44 ± 1.2 kg/m3 and the mass density (353.15 K, x1 = 1) was 807.81 ± 1.3 kg/m3.
